Test results from US12686832B2, “Ashless ionic liquid” (PETROLIAM NASIONAL BERHAD (PETRONAS), priority 2022, dated 2026).

What was measured:
[1] = Miscibility study in ETRO 4+; assay type: physicochemical; conditions: 1 wt. % in ETRO 4+, mixed at 60° C. for 1 h, left 24 h before observation
Procedure: Synthesised ionic liquids (1 wt. %) were mixed with ETRO 4+ solution at 60° C. for 1 h, and left to sit for 24 h before observation.

[2] = High Frequency Reciprocating Rig (HFRR) tribology test; conditions: for Friction coefficient behaviour over contact time / friction reduction compared to the baseline fluid / wear scar diameter reduction compared to the baseline fluid: 1 wt % in PETRONAS LB 25 polyol ester; for Friction coefficient behaviour over contact time: vs baseline fluid
Procedure: (§1) High Frequency Reciprocating Rig (HFRR): tribology test rubbing of ball to disc metal specimens, under pure sliding contact (boundary lubrication regime), load at 400 g, frequency at 20 Hz, temperature at 120° C. for 60 mins. Only visually soluble solutions were evaluated, therefore, only Formulation 2 and Formulation 3 were tested. Reported values were the average of minimum 2 repeat runs.
as §1, with “was” for “and Formulation 3 were”, “replicate” for “repeat”
High Frequency Reciprocating Rig (HFRR): tribology test rubbing of ball to disc metal specimens, under pure sliding contact (boundary lubrication regime), load at 400 g, frequency at 20 Hz, temperature at 120° C. for 60 mins. Reported values were the average of minimum 2 replicate runs.

[3] = Experimental solubility at 1 wt % in lubricant base oils; assay type: physicochemical
Procedure: ILN18-5B-DC12 was mixed in mineral base oil Group III+ (ETRO 4+) and PETRONAS LB 25 polyol ester (and their mixtures) at 1 wt. % concentration to assess solubility and tribology evaluation. Samples were prepared by mixing the solutions at 60° C. for 1 h.
Samples were prepared by mixing the solutions at 60° C. for 1 h.
ILN18-MECA-1 was mixed in mineral base oil Group III+(ETRO 4+) and PETRONAS LB 25 polyol ester at 1 wt % concentration respectively to assess solubility and tribology evaluation. Samples were prepared by mixing the solutions at 60° C. for 1 h.

[4] = Thermo-gravimetric analysis under nitrogen (ashless nature); assay type: physicochemical
Source text: The ashless nature of the formed ionic liquid was confirmed by thermo-gravimetric analysis under nitrogen (0.4788 wt. % residue).
The ashless nature of the formed ionic liquid was confirmed by thermo-gravimetric analysis under nitrogen (0.47271 wt. % residue).

[5] = 1 wt % in ETRO 4+ (89%) and LB 25 (10%), HFRR 400 g, 20 Hz, 120° C., 60 mins
[6] = HFRR 400 g, 20 Hz, 120° C., 60 mins

Compound | Appearance (miscibility) [1] | Friction coefficient behaviour over contact time [2] | friction reduction compared to the baseline fluid [2, 6] [%] | wear scar diameter reduction compared to the baseline fluid [2, 6] [%] | residue in thermo-gravimetric analysis [4] [wt. %] | further results
CC(C)(COC(=O)CCCCCCCCC(=O)[O-])COC(=O)CCCCCCCCC(=O)[O-].CCCCCCCC[N+](C)(CCCCCCCC)CCCCCCCC.CCCCCCCC[N+](C)(CCCCCCCC)CCCCCCCC [ILN18-5B-DC10] | Insoluble (2 separate phases) | – | – | – | – | –
CC(C)(COC(=O)CCCCCCCCCCC(=O)O)COC(=O)CCCCCCCCCCC(=O)O [ILN18-5B-DC12] | – | significant friction reduction | 67 | 59 | 0.4788 | friction reduction compared to baseline [2, 5]: 55%; wear scar diameter reduction compared to baseline [2, 5]: 57%; Experimental solubility ([3]; Formulation 1: 1 wt % in Group III Mineral Oil (ETRO 4+), mixed at 60° C. for 1 h): Insoluble; Experimental solubility ([3]; Formulation 2: 1 wt % in PETRONAS polyol ester LB 25, mixed at 60° C. for 1 h): Soluble, clear solution; Experimental solubility ([3]; Formulation 3: 1 wt % in ETRO 4+ (89%) and LB 25 (10%), mixed at 60° C. for 1 h): Soluble, clear solution
tris-(trioctyl methylammonium) trisebacate [ILN18-6BT-DC10] | – | significant friction reduction | 57 | 58 | 0.4727 | –

Now from value to compound, other results behind:

Appearance (miscibility) [1] | Compound | Friction coefficient behaviour over contact time [2] | friction reduction compared to the baseline fluid [2, 6] [%] | wear scar diameter reduction compared to the baseline fluid [2, 6] [%] | residue in thermo-gravimetric analysis [4] [wt. %] | further results
Insoluble (2 separate phases) | CCCCCCCC[N+](C)(CCCCCCCC)CCCCCCCC.CCCCCCCC[N+](C)(CCCCCCCC)CCCCCCCC.O=C([O-])CCCCCCCCCCC(=O)[O-] [ILN18-DC12, reference compound] | – | – | – | – | –
Clear solution | CCCCCCCCC(=O)OC(CCCCCC)CCCCCCCCCCC(=O)[O-].CCCCCCCC[N+](C)(CCCCCCCC)CCCCCCCC (stereo not shown) [ILN18-MECA-4] | – | – | – | – | –
